Earlier results on one compound are cited in patent US20050287177A1, “Pharmaceutical compositions” (Glaxo Group Unlimited and Smithkline Beecham Corp., priority 2002, published 2005).

The conditions of data set [1]: elimination.
The conditions of data set [2]: colon versus small intestine.

As to `Cc1cn([C@H]2C[C@H](N=[N+]=[N-])[C@@H](CO)O2)c(=O)[nH]c1=O` [Zidovudine, 3′-azido-3′-deoxythymidine], the terminal half-life in data set [1] was 1.5 to 2 h. Besides, the colonic absorption result in data set [2] is given as “very low”.
